{
  "source": "patent US10709758B2",
  "about": "(priority 2015, dated 2020)",
  "data": [
    {"biological_target": "TcdB1 (Clostridioides difficile, UniProt P18177)", "sequence (P18177 2-2366 limits assumed)": "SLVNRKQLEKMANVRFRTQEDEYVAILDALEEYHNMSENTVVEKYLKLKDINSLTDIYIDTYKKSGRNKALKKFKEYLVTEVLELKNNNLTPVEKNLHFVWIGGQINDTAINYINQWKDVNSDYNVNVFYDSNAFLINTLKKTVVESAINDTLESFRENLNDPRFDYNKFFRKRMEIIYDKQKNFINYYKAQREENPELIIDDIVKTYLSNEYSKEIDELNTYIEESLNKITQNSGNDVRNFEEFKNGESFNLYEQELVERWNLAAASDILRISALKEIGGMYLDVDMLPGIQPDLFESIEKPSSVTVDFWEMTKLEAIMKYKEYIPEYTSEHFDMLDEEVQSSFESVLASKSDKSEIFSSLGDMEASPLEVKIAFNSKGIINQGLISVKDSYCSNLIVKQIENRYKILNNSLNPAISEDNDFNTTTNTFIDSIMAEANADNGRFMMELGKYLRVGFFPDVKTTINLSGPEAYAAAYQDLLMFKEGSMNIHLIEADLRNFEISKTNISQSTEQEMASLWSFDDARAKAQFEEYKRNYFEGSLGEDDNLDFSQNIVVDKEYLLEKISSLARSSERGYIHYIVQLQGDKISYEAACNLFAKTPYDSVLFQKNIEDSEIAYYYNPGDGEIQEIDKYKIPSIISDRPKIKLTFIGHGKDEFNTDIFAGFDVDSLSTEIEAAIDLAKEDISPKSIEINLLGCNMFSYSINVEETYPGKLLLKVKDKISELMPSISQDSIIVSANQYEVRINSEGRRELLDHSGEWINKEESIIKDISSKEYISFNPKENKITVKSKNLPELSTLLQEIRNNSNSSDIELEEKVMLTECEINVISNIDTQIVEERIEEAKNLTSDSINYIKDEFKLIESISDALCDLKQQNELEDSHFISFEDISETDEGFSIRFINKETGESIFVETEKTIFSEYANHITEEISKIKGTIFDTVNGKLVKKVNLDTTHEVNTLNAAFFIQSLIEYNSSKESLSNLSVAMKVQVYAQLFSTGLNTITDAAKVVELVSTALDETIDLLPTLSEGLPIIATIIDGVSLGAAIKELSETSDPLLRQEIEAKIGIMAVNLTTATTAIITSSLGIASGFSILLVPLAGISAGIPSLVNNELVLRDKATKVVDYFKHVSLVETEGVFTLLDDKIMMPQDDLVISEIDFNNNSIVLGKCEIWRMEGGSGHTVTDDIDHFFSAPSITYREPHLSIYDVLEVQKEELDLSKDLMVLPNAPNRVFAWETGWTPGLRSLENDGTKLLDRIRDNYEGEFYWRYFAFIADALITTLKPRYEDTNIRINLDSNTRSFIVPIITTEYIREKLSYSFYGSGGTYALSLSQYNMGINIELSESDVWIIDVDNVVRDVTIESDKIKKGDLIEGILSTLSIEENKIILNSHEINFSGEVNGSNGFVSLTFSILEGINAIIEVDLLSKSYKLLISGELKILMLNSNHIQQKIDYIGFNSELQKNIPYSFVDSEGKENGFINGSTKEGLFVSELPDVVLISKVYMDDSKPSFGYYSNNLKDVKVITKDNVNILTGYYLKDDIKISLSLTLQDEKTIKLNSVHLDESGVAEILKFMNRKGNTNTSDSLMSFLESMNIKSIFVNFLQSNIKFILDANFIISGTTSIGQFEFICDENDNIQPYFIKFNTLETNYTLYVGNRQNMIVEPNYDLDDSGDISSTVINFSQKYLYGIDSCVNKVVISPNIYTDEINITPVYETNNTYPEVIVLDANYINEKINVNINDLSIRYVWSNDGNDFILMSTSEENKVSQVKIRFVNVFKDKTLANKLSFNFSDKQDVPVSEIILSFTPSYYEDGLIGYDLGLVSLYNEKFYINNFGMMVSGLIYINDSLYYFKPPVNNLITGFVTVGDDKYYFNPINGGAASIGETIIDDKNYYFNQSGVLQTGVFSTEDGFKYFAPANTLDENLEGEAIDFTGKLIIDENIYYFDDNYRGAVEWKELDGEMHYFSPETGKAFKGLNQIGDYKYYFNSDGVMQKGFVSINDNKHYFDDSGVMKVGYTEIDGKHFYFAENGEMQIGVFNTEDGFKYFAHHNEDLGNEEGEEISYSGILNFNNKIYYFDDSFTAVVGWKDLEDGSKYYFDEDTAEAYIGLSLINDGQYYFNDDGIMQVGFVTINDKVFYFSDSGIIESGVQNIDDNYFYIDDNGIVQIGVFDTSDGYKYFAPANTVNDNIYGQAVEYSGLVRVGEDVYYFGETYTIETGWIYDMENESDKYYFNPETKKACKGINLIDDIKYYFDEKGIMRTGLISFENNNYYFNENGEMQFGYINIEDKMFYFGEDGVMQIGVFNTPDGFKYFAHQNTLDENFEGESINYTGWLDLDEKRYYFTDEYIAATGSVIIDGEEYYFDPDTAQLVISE", "values": [
      {"sequence": "NVFKGKTISDKISFNFSDK [PepB2-N6K]", "TcdB inhibitory activity of PepB2/PepB1 substitution variants": "TcdB inhibitory activity also disappeared"},
      {"sequence": "NVFKDNTISDKISFNFSDK [PepB2-G5D]", "TcdB inhibitory activity of PepB2/PepB1 substitution variants": "inhibitor activity was lost"},
      {"sequence": "NVFKGNTLANKLSFNFSDK [PepB1-DK5-6GN]", "TcdB inhibitory activity of PepB2/PepB1 substitution variants": "Inhibitory activity was gained"},
      {"sequence": "NVFKSNTISDKISFNFSDK [PepB2-G5S]", "TcdB inhibitory activity of PepB2/PepB1 substitution variants": "activity was also lost"},
      {"sequence": "NVFKDKTISDKISFNFSDK [PepB2-GN5-6DK]", "TcdB inhibitory activity of PepB2/PepB1 substitution variants": "inhibitory activity of the resulting peptide was lost"}
    ]}
  ]
}
